Parameters in all cases: scale not given: the % may be the effect or the level left
Experiment [1] addresses T1, Ephrin type-B receptor 1 (Homo sapiens) (UniProt P54762).
T1 sequence (whole entry): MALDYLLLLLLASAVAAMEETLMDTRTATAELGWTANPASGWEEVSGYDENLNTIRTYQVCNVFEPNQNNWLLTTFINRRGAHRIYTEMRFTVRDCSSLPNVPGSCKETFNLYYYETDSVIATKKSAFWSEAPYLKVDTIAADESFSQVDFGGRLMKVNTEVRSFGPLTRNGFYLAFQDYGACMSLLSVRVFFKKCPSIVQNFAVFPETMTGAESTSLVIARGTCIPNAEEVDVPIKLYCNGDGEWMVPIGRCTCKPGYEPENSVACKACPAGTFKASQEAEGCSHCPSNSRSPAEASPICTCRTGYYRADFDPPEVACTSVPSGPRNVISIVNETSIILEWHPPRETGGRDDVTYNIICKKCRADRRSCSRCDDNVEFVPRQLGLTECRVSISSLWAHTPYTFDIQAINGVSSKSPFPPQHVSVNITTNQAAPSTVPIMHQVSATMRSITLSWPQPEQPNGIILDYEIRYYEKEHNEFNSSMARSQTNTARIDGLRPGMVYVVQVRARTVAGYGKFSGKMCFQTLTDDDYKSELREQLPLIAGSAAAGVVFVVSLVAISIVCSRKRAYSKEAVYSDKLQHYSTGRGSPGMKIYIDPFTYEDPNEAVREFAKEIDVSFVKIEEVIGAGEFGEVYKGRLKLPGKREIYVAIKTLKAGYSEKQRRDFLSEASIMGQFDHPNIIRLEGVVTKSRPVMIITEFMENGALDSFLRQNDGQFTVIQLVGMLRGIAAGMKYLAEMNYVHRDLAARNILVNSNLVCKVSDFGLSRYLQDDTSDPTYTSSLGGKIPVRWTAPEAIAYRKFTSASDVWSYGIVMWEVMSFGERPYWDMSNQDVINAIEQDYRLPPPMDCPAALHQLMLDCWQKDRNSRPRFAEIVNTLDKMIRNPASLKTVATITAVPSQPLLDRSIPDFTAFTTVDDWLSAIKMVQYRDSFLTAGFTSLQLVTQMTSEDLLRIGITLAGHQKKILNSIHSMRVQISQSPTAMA
Description: Inhibition of human EPHB1 assessed as enzyme activity at 1 uM using poly[Glu:Tyr] (4:1) as substrate preincubated for 20 mins followed by [gamma-33P]-ATP addition and measured after 120 mins by radiometric Hot-SpotSM Kinase assay relative to control.

Experiment [2] concerns the target Tyrosine-protein kinase Fgr (Homo sapiens) (UniProt P09769). In words: Inhibition of human FGR assessed as enzyme activity at 1 uM using poly[Glu:Tyr] (4:1) as substrate preincubated for 20 mins followed by [gamma-33P]-ATP addition and measured after 120 mins by radiometric Hot-SpotSM Kinase assay relative to control.
Experiment [3] concerns the target Mitogen-activated protein kinase 9 (Homo sapiens) (UniProt P45984). In words: Inhibition of human JNK2-alpha2 assessed as enzyme activity at 1 uM using ATF2 as substrate preincubated for 20 mins followed by [gamma-33P]-ATP addition and measured after 120 mins by radiometric Hot-SpotSM Kinase assay relative to control.
For experiment [4], the target named is T2, MAP/microtubule affinity-regulating kinase 4 (Homo sapiens) (UniProt Q96L34).
T2 sequence (whole entry): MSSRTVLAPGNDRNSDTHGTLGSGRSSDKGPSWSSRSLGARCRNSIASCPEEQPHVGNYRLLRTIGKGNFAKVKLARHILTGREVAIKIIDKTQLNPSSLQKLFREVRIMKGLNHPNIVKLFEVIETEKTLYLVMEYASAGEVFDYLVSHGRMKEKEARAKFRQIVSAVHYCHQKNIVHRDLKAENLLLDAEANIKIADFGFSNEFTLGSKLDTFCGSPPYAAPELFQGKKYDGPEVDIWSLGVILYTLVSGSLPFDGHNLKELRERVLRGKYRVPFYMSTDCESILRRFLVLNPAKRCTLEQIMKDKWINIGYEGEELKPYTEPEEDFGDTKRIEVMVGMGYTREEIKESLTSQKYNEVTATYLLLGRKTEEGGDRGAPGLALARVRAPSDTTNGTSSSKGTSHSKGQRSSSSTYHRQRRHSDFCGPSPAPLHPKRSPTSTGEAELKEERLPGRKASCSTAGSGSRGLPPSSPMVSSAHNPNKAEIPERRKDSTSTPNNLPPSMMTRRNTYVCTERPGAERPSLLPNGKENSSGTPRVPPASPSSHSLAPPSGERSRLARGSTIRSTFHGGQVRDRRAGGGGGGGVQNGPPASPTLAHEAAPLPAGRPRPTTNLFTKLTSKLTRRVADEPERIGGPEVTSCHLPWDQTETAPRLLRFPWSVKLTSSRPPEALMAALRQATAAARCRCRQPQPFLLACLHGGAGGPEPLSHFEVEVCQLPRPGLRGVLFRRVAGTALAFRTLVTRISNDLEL
In words: Inhibition of human MARK4 assessed as enzyme activity at 1 uM using KKKVSRSGLYRSPSMPENLNRPR as substrate preincubated for 20 mins followed by [gamma-33P]-ATP addition and measured after 120 mins by radiometric Hot-SpotSM Kinase assay relative to control.

For experiment [5], the target named is Serine/threonine-protein kinase PAK 1 (Homo sapiens) (UniProt Q13153). In words: Inhibition of human PAK1 assessed as enzyme activity at 1 uM using RRRLSFAEPG as substrate preincubated for 20 mins followed by [gamma-33P]-ATP addition and measured after 120 mins by radiometric Hot-SpotSM Kinase assay relative to control.
Serine/threonine-protein kinase PAK 1 (Homo sapiens), sequence (Q13153 whole entry): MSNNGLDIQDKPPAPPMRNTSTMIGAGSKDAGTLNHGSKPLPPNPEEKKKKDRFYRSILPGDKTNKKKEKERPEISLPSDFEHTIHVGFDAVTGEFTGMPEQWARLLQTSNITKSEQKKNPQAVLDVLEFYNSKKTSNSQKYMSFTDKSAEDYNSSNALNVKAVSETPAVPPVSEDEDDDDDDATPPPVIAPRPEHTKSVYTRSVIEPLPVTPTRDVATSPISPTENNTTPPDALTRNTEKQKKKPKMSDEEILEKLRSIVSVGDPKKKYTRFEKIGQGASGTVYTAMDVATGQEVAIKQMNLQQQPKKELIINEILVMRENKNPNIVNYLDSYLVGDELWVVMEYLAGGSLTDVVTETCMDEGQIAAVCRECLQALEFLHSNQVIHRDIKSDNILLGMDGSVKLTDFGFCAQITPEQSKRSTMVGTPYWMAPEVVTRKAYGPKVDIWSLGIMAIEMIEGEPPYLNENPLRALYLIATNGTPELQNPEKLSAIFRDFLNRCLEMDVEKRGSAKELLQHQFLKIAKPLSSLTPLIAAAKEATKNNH

Mitogen-activated protein kinase 9 (Homo sapiens), sequence (P45984 whole entry, looked up): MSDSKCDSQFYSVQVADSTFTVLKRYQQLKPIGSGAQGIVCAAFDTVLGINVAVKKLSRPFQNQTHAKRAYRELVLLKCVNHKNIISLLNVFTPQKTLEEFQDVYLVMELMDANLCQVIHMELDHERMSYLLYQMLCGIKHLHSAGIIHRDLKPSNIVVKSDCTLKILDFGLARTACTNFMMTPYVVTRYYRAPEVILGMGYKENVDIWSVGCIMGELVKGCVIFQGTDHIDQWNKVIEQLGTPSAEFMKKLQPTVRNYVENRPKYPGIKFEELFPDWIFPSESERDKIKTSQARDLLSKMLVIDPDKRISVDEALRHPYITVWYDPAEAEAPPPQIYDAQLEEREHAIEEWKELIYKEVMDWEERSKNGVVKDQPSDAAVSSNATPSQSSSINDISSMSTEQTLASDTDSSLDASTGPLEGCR
Tyrosine-protein kinase Fgr (Homo sapiens), sequence (P09769 2-529 limits assumed): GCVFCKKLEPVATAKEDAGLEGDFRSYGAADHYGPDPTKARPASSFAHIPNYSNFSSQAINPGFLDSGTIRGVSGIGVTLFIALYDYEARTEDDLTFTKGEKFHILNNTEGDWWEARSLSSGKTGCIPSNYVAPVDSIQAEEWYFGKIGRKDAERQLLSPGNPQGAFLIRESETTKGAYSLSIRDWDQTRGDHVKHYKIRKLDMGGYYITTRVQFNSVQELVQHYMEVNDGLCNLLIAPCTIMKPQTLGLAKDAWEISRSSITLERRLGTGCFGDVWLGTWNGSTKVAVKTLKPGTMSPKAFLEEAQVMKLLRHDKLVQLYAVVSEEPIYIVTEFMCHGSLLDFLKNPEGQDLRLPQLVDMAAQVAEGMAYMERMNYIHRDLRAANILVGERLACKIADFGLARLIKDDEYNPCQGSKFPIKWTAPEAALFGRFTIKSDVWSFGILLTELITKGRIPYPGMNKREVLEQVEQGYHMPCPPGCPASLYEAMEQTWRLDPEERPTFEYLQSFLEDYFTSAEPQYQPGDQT

Regarding `C[C@H](Nc1ncnc2nc[nH]c12)c1cc2cccc(Cl)c2c(=O)n1-c1ccccc1`, the Activity in experiment [1] is 93.4%; in experiment [2], 103%; in experiment [3], 97.8%; in experiment [4] it was 109%; in experiment [5], 97.5%.
For `CC[C@H](Nc1ncnc2[nH]cnc12)c1nc2cccc(F)c2c(=O)n1-c1ccccc1`, in that order: 90.6%, 98.8%, 96.8%, 97% and 98.7%.
For `CC(C)Oc1ccc(-c2nn([C@@H](C)c3oc4ccc(F)cc4c(=O)c3-c3cccc(F)c3)c3ncnc(N)c23)cc1F` [UMBRALISIB], the Activity in experiment [1] was 95.5%; in experiment [2], 99.6%; in experiment [3], 97.3%; in experiment [4], 112%; in experiment [5], 98.2%.

Source of the values: ChEMBL document CHEMBL5715954, “Silencing c-Myc translation as a therapeutic strategy through targeting PI3Kδ and CK1ε in hematological malignancies” (Blood, 2017).
